This is an account of results in ChEMBL document CHEMBL5338730, “Metabolism-Guided Selective Androgen Receptor Antagonists: Design, Synthesis, and Biological Evaluation for Activity against Enzalutamide-Resistant Prostate Cancer” (J Med Chem, 2023).

Data set [1] in a line: in vitro. Conditions: mouse, microsomes.
Description: Half life in mouse liver microsomes at 50 uM measured for 60 mins in presence of NADP+
The conditions of data set [2]: mouse, microsomes, 1 h, 50 µM.

The compound `C[C@](O)(CS(=O)(=O)c1ccc(F)cc1)C(=O)Nc1ccc(C#N)c(C(F)(F)F)c1` [(R)-BICALUTAMIDE] showed a half-life at 1 h, 50 µM in data set [1] of 602 min. In turn, `C[C@](O)(COc1ccc(C#N)cc1)C(=O)Nc1ccc(C#N)c(C(F)(F)F)c1` [ENOBOSARM] yielded a CLH in data set [2] of 1.4 mL/min/mg.
